Data reported in US20080262026A1, “Therapeutic Agents 684” (AstraZeneca AB, priority 2007, published 2008).
Where two headings read alike, the source gives them in different places.

What was measured:
CB1 receptor = target: T1, CB1 receptor (Homo sapiens, UniProt P21554); test: [35S]-GTPγS binding assay, inhibition of CP55940 (EC80) stimulated activity in membranes of cells stably transfected with the CB1 gene; type: biochemical
T1 construct: expressed in transfected cells
Method: 10 μg of membranes prepared from cells stably transfected with the CB1 gene were suspended in 200 μl of 100 mM NaCl, 5 mM MgCl2, 1 mM EDTA, 50 mM HEPES (pH 7.4), 1 mM DTT, 0.1% BSA and 100 μM GDP. To this was added an EC80 concentration of agonist (CP55940), the required concentration of test compound and 0.1 μCi [^35S]-GTPγS. The reaction was allowed to proceed at 30° C. for 45 min. Samples were then transferred on to GF/B filters using a cell harvester and washed with wash buffer (50 mM Tris (pH 7.4), 5 mM MgCl2, 50 mM NaCl). Filters were then covered with scintilant and counted for the amount of [^35S]-GTPγS retained by the filter.
Activity is measured in the absence of all ligands (minimum activity) or in the presence of an EC80 concentration of CP55940 (maximum activity). These activities are set as 0% and 100% activity respectively. At various concentrations of novel ligand, activity is calculated as a percentage of the maximum activity and plotted. The data are fitted using the equation y=A+((B−A)/1+((C/x)ÚD)) and the IC50 value determined as the concentration required to give half maximal inhibition of GTPγS binding under the conditions used.

[1] = Solubility in dimethyl sulfoxide; type: physicochemical; settings: organic solvent dimethyl sulfoxide
Text: The compounds of the present invention have improved solubility in organic solvents compared to compounds in the prior art. […] It would be expected that this increase in solubility in organic solvents would lead to improvements in bioavailability and ease of manufacture and formulation.

[2] = half maximal inhibition of GTPγS binding, EC80 concentration of agonist CP55940, 30° C. 45 min, read-out: IC50

T1 sequence (P21554 whole entry): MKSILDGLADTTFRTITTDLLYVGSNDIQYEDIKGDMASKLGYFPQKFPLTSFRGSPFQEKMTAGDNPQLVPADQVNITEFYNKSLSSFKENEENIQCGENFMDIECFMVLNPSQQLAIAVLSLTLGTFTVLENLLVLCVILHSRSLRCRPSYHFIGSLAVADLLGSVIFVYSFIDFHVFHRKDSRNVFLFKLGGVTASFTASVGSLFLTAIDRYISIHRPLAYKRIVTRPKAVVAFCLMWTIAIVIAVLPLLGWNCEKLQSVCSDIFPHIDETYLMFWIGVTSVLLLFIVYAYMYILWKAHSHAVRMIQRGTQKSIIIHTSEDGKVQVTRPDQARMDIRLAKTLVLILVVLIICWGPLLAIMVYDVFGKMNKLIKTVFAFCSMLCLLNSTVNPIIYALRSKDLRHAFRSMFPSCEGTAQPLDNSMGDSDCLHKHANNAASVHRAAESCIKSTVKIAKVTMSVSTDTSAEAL

Row | SMILES | IC50 (CB1 receptor; [2]) [nM] | further results
1 | CCCCCc1ccc(-c2c(C)c3c(n2-c2ccc(Cl)cc2Cl)CCN(N2CCCCC2)C3=O)cc1 [Example 6, 1-(2,4-dichlorophenyl)-3-methyl-2-(4-pentylphenyl)-5-piperidin-1-yl-1,5,6,7-tetrahydro-4H-pyrrolo[3,2-c]pyridin-4-one] | – | IC50 (CB1 receptor): 2.1 nM
2 | Cc1c2c(n(-c3ccc(Cl)cc3Cl)c1-c1ccc(Cl)cc1)CCN(N1CCCCC1)C2=O [Example 19 of WO03/027114, 2-(4-chlorophenyl)-1-(2,4-dichlorophenyl)-3-methyl-5-(1-piperidinyl)-1,5,6,7-tetrahydro-4H-pyrrolo-[3,2-c]pyridin-4-one] | – | solubility in dimethyl sulfoxide [1]: insoluble
3 | Cc1c2c(n(-c3ccc(Cl)cc3Cl)c1-c1ccc(/C=C/CCC(F)(F)F)cc1)CCN(N1CCCCC1)C2=O [Example 3, 1-(2,4-dichlorophenyl)-3-methyl-5-piperidin-1-yl-2-{4-[5,5,5-trifluoropent-1-en-1-yl]phenyl}-1,5,6,7-tetrahydro-4H-pyrrolo[3,2-c]pyridin-4-one] | 5 | –
4 | CCC/C=C/c1ccc(-c2c(C)c3c(n2-c2ccc(Cl)cc2Cl)CCN(N2CCCCC2)C3=O)cc1 [Example 5, 1-(2,4-dichlorophenyl)-3-methyl-2-{4-[pent-1-en-1-yl]phenyl}-5-piperidin-1-yl-1,5,6,7-tetrahydro-4H-pyrrolo[3,2-c]pyridin-4-one] | 2.1 | –

More lines, main results first:

Row | IC50 (CB1 receptor; [2]) [nM] | SMILES | further results
5 | 5.1 | Cc1c2c(n(-c3ccc(Cl)cc3Cl)c1-c1ccc(CN3CCC(F)(F)C3)cc1)CCN(N1CCCCC1)C2=O [Example 1, 1-(2,4-dichlorophenyl)-2-{4-[(3,3-difluoropyrrolidin-1-yl)methyl]phenyl}-3-methyl-5-piperidin-1-yl-1,5,6,7-tetrahydro-4H-pyrrolo[3,2-c]pyridin-4-one] | –
6 | 2.5 | Cc1c2c(n(-c3ccc(Cl)cc3Cl)c1-c1ccc(CCCCC(F)(F)F)cc1)CCN(N1CCCCC1)C2=O [Example 4, 1-(2,4-dichlorophenyl)-3-methyl-5-piperidin-1-yl-2-[4-(5,5,5-trifluoropentyl)phenyl]-1,5,6,7-tetrahydro-4H-pyrrolo[3,2-c]pyridin-4-one] | –
7 | 7.5 | Cc1c2c(n(-c3ccc(Cl)cc3Cl)c1-c1ccc(CN3CC(F)(F)C3)cc1)CCN(N1CCCCC1)C2=O [Example 2, 1-(2,4-dichlorophenyl)-2-{4-[(3,3-difluoroazetidin-1-yl)methyl]phenyl}-3-methyl-5-piperidin-1-yl-1,5,6,7-tetrahydro-4H-pyrrolo[3,2-c]pyridin-4-one] | –
